According to patent US10829501B2 (BRISTOL-MYERS SQUIBB COMPANY, priority 2016, dated 2020):

target: ROCK2 (Homo sapiens, UniProt O75116); assay: ROCK2 kinase inhibition assay (LABCHIP 3000 Reader, FITC peptide substrate);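 further: rho kinase reaction read by separating phosphorylated from unphosphorylated peptide on chip, with inhibition of kinase activity computed per concentration across a dose-response series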
Sequence (O75116 whole entry, species assumed): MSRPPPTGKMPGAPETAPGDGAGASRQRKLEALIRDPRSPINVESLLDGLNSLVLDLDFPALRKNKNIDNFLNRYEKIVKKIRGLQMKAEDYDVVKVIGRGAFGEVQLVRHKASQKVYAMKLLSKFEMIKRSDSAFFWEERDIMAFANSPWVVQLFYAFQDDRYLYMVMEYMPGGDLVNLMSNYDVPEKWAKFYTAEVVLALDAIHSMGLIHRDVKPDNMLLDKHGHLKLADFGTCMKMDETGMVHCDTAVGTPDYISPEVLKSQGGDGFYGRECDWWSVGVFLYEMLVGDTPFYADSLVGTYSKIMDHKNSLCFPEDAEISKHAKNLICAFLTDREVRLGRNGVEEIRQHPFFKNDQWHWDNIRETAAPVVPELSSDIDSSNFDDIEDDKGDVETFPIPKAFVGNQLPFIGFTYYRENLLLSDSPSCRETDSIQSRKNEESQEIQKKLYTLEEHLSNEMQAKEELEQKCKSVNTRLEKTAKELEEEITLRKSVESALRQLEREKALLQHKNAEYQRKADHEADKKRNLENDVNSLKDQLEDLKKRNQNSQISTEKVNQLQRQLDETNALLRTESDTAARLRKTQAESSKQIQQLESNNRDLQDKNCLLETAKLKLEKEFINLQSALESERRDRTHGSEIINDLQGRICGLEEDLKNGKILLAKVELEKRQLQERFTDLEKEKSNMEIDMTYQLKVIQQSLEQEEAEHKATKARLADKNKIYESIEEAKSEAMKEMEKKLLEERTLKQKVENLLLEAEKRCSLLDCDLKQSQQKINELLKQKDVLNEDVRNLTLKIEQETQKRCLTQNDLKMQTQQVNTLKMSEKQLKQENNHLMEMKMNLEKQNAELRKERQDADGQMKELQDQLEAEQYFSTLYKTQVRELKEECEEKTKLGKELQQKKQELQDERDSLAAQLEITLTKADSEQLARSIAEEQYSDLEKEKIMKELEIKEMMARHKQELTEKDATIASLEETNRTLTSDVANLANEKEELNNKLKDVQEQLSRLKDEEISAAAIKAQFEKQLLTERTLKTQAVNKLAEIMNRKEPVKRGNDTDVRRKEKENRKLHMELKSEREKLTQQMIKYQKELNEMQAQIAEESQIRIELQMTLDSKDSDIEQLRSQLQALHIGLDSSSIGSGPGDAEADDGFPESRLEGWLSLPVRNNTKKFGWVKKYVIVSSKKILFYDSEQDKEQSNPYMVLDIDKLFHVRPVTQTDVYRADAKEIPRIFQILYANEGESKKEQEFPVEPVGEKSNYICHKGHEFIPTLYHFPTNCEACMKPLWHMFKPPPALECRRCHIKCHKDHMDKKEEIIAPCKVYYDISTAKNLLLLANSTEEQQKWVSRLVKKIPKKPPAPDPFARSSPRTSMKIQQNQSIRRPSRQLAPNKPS

SMILES | IC50 [nM]
COCCOC(=O)Nc1ccc(-c2ccc(C(N)=O)c(OC3CC4(CC(NC(=O)c5cnn6cc(OCC(C)(C)O)ccc56)C4)C3)c2)cn1 (centres unmarked) [Example 233, 2-methoxyethyl (5-(4-carbamoyl-3-((6-(6-(2-hydroxy-2-methylpropoxy)pyrazolo[1,5-a]pyridine-3-carboxamido)spiro[3.3]heptan-2-yl)oxy)phenyl)pyridin-2-yl)carbamate] | 5 to 50
CC(C)(O)COc1ccc2c(C(=O)NC3CC4(C3)CC(Oc3cc(-c5ccc(C(C)(C)O)nc5)ccc3C(N)=O)C4)cnn2c1 (centres unmarked) [Example 234, N-(6-(2-carbamoyl-5-(6-(2-hydroxypropan-2-yl)pyridin-3-yl)phenoxy)spiro[3.3]heptan-2-yl)-6-(2-hydroxy-2-methylpropoxy)pyrazolo[1,5-a]pyridine-3-carboxamide] | 50 to 250
COc1cccc(-c2ccc(C(N)=O)c(OC3CC4(CC(NC(=O)c5cnn6cc(OCC(C)(C)O)ccc56)C4)C3)c2)n1 (centres unmarked) [Example 235, N-(6-(2-carbamoyl-5-(6-methoxypyridin-2-yl)phenoxy)spiro[3.3]heptan-2-yl)-6-(2-hydroxy-2-methylpropoxy)pyrazolo[1,5-a]pyridine-3-carboxamide] | 5 to 50
CC(C)(O)COc1ccc2c(C(=O)NC3CC4(C3)CC(Oc3cc(-c5cccc(N)n5)ccc3C(N)=O)C4)cnn2c1 (centres unmarked) [Example 236, N-(6-(5-(6-aminopyridin-2-yl)-2-carbamoylphenoxy)spiro[3.3]heptan-2-yl)-6-(2-hydroxy-2-methylpropoxy)pyrazolo[1,5-a]pyridine-3-carboxamide] | 5 to 50
CC(C)(O)COc1ccc2c(C(=O)NC3CC4(C3)CC(Oc3cc(-c5ccccn5)ccc3C(N)=O)C4)cnn2c1 (centres unmarked) [Example 237, N-(6-(2-carbamoyl-5-(pyridin-2-yl)phenoxy)spiro[3.3]heptan-2-yl)-6-(2-hydroxy-2-methylpropoxy)pyrazolo[1,5-a]pyridine-3-carboxamide] | 5 to 50
CC(C)(O)COc1ccc2c(C(=O)NC3CC4(C3)CC(Oc3cc(-c5cccc(OCC(F)(F)F)c5)ccc3C(N)=O)C4)cnn2c1 (centres unmarked) [Example 238, N-(6-((4-carbamoyl-3′-(2,2,2-trifluoroethoxy)-[1,1′-biphenyl]-3-yl)oxy)spiro[3.3]heptan-2-yl)-6-(2-hydroxy-2-methylpropoxy)pyrazolo[1,5-a]pyridine-3-carboxamide] | 50 to 250
COc1cccc(-c2ccc(C(N)=O)c(OC3CC4(CC(NC(=O)c5cnn6cc(OCC(C)(C)O)ccc56)C4)C3)c2)c1 (centres unmarked) [Example 239, N-(6-((4-carbamoyl-3′-methoxy-[1,1′-biphenyl]-3-yl)oxy)spiro[3.3]heptan-2-yl)-6-(2-hydroxy-2-methylpropoxy)pyrazolo[1,5-a]pyridine-3-carboxamide] | 5 to 50
CC(C)(O)COc1ccc2c(C(=O)NC3CC4(C3)CC(Oc3cc(-c5cccc(O)c5)ccc3C(N)=O)C4)cnn2c1 (centres unmarked) [Example 240, N-(6-((4-carbamoyl-3′-hydroxy-[1,1′-biphenyl]-3-yl)oxy)spiro[3.3]heptan-2-yl)-6-(2-hydroxy-2-methylpropoxy)pyrazolo[1,5-a]pyridine-3-carboxamide] | 5 to 50
CC(C)(O)COc1ccc2c(C(=O)NC3CC4(C3)CC(Oc3cc(-c5cccc(C(F)F)c5)ccc3C(N)=O)C4)cnn2c1 (centres unmarked) [Example 241, N-(6-((4-carbamoyl-3′-(difluoromethyl)-[1,1′-biphenyl]-3-yl)oxy)spiro[3.3]heptan-2-yl)-6-(2-hydroxy-2-methylpropoxy)pyrazolo[1,5-a]pyridine-3-carboxamide] | 5 to 50
CC(C)(O)COc1ccc2c(C(=O)NC3CC4(C3)CC(Oc3cc(-c5cccc(F)c5)ccc3C(N)=O)C4)cnn2c1 (centres unmarked) [Example 242, N-(6-((4-carbamoyl-3′-fluoro-[1,1′-biphenyl]-3-yl)oxy)spiro[3.3]heptan-2-yl)-6-(2-hydroxy-2-methylpropoxy)pyrazolo[1,5-a]pyridine-3-carboxamide] | 5 to 50
CC(C)(O)COc1ccc2c(C(=O)NC3CC4(C3)CC(Oc3cc(-c5cccc(C(F)(F)F)c5)ccc3C(N)=O)C4)cnn2c1 (centres unmarked) [Example 243, N-(6-((4-carbamoyl-3′-(trifluoromethyl)-[1,1′-biphenyl]-3-yl)oxy)spiro[3.3]heptan-2-yl)-6-(2-hydroxy-2-methylpropoxy)pyrazolo[1,5-a]pyridine-3-carboxamide] | 50 to 250

Results, then the molecule that gave them:

IC50 [nM] | SMILES
< 5 | CC(C)(O)COc1ccc2c(C(=O)NC3CC4(C3)CC(Oc3cc(-c5cccc(C#N)c5)ccc3C(N)=O)C4)cnn2c1 (centres unmarked) [Example 244, N-(6-((4-carbamoyl-3′-cyano-[1,1′-biphenyl]-3-yl)oxy)spiro[3.3]heptan-2-yl)-6-(2-hydroxy-2-methylpropoxy)pyrazolo[1,5-a]pyridine-3-carboxamide]
5 to 50 | COCc1cccc(-c2ccc(C(N)=O)c(OC3CC4(CC(NC(=O)c5cnn6cc(OCC(C)(C)O)ccc56)C4)C3)c2)c1 (centres unmarked) [Example 245, N-(6-((4-carbamoyl-3′-(methoxymethyl)-[1,1′-biphenyl]-3-yl)oxy)spiro[3.3]heptan-2-yl)-6-(2-hydroxy-2-methylpropoxy)pyrazolo[1,5-a]pyridine-3-carboxamide]
5 to 50 | Cc1nn(-c2cccc(-c3ccc(C(N)=O)c(OC4CC5(CC(NC(=O)c6cnn7cc(OCC(C)(C)O)ccc67)C5)C4)c3)c2)c(N)c1C#N (centres unmarked) [Example 246, N-(6-((3′-(5-amino-4-cyano-3-methyl-1H-pyrazol-1-yl)-4-carbamoyl-[1,1′-biphenyl]-3-yl)oxy)spiro[3.3]heptan-2-yl)-6-(2-hydroxy-2-methylpropoxy)pyrazolo[1,5-a]pyridine-3-carboxamide]
< 5 | CC(C)(O)COc1ccc2c(C(=O)NC3CC4(C3)CC(Oc3cc(-c5cccc(CO)c5)ccc3C(N)=O)C4)cnn2c1 (centres unmarked) [Example 247, N-(6-((4-carbamoyl-3′-(hydroxymethyl)-[1,1′-biphenyl]-3-yl)oxy)spiro[3.3]heptan-2-yl)-6-(2-hydroxy-2-methylpropoxy)pyrazolo[1,5-a]pyridine-3-carboxamide]
5 to 50 | CC(C)(O)COc1ccc2c(C(=O)NC3CC4(C3)CC(Oc3cc(-c5cccc(Cl)n5)ccc3C(N)=O)C4)cnn2c1 (centres unmarked) [Example 248]
< 5 | CC(C)(O)COc1ccc2c(C(=O)NC3CC4(C3)CC(Oc3cc(-c5cccc(COC(=O)NCCC(=O)O)c5)ccc3C(N)=O)C4)cnn2c1 (centres unmarked) [Example 249, 3-((((4′-carbamoyl-3′-((6-(6-(2-hydroxy-2-methylpropoxy)pyrazolo[1,5-a]pyridine-3-carboxamido)spiro[3.3]heptan-2-yl)oxy)-[1,1′-biphenyl]-3-yl)methoxy)carbonyl)amino)propanoic acid]
50 to 250 | CC(C)(O)COc1ccc2c(C(=O)NC3CC4(C3)CC(Oc3cc(-c5cccc(COC(=O)NCCC(=O)OC(C)(C)C)c5)ccc3C(N)=O)C4)cnn2c1 (centres unmarked) [Example 250, tert-butyl 3-((((4′-carbamoyl-3′-((6-(6-(2-hydroxy-2-methylpropoxy)pyrazolo[1,5-a]pyridine-3-carboxamido)spiro[3.3]heptan-2-yl)oxy)-[1,1′-biphenyl]-3-yl)methoxy)carbonyl)amino)propanoate]
5 to 50 | CCCNC(=O)c1cc(F)cc(-c2ccc(C(N)=O)c(OC3CC4(CC(NC(=O)c5cnn6cc(OCC(C)(C)O)ccc56)C4)C3)c2)c1 (centres unmarked) [Example 251, 5-fluoro-3′-((6-(6-(2-hydroxy-2-methylpropoxy)pyrazolo[1,5-a]pyridine-3-carboxamido)spiro[3.3]heptan-2-yl)oxy)-N3-propyl-[1,1′-biphenyl]-3,4′-dicarboxamide]
5 to 50 | CC(C)(O)COc1ccc2c(C(=O)NC3CC4(C3)CC(Oc3cc(-c5cccc(CN)c5)ccc3C(N)=O)C4)cnn2c1 (centres unmarked) [Example 252, N-(6-((3′-(aminomethyl)-4-carbamoyl-[1,1′-biphenyl]-3-yl)oxy)spiro[3.3]heptan-2-yl)-6-(2-hydroxy-2-methylpropoxy)pyrazolo[1,5-a]pyridine-3-carboxamide]
5 to 50 | CC(C)(O)COc1ccc2c(C(=O)NC3CC4(C3)CC(Oc3cc(-c5cc(F)cc(C#N)c5)ccc3C(N)=O)C4)cnn2c1 (centres unmarked) [Example 253, N-(6-((4-carbamoyl-3′-cyano-5′-fluoro-[1,1′-biphenyl]-3-yl)oxy)spiro[3.3]heptan-2-yl)-6-(2-hydroxy-2-methylpropoxy)pyrazolo[1,5-a]pyridine-3-carboxamide]
5 to 50 | CC(C)(O)COc1ccc2c(C(=O)NC3CC4(C3)CC(Oc3cc(-c5cc(C#N)cc([N+](=O)[O-])c5)ccc3C(N)=O)C4)cnn2c1 (centres unmarked) [Example 254, N-(6-((4-carbamoyl-3′-cyano-5′-nitro-[1,1′-biphenyl]-3-yl)oxy)spiro[3.3]heptan-2-yl)-6-(2-hydroxy-2-methylpropoxy)pyrazolo[1,5-a]pyridine-3-carboxamide]
5 to 50 | CC(C)(O)COc1ccc2c(C(=O)NC3CC4(C3)CC(Oc3cc(-c5cc(C(=O)O)cc(C(=O)O)c5)ccc3C(N)=O)C4)cnn2c1 (centres unmarked) [Example 255, 4′-carbamoyl-3′-((6-(6-(2-hydroxy-2-methylpropoxy)pyrazolo[1,5-a]pyridine-3-carboxamido)spiro[3.3]heptan-2-yl)oxy)-[1,1′-biphenyl]-3,5-dicarboxylic acid]
5 to 50 | CC(C)(O)COc1ccc2c(C(=O)NC3CC4(C3)CC(Oc3cc(-c5cccnc5)ccc3C(N)=O)C4)cnn2c1 (centres unmarked) [Example 256, N-(6-(2-carbamoyl-5-(pyridin-3-yl)phenoxy)spiro[3.3]heptan-2-yl)-6-(2-hydroxy-2-methylpropoxy)pyrazolo[1,5-a]pyridine-3-carboxamide]
5 to 50 | CC(C)(O)COc1ccc2c(C(=O)NC3CC4(C3)CC(Oc3cc(-c5cccc(C(N)C(=O)O)c5)ccc3C(N)=O)C4)cnn2c1 (centres unmarked) [Example 257, 2-amino-2-(4′-carbamoyl-3′-((6-(6-(2-hydroxy-2-methylpropoxy)pyrazolo[1,5-a]pyridine-3-carboxamido)spiro[3.3]heptan-2-yl)oxy)-[1,1′-biphenyl]-3-yl)acetic Acid]
< 5 | CC(C)(O)COc1ccc2c(C(=O)NC3CC4(C3)CC(Oc3cc(-c5cc(CO)cc(CO)c5)ccc3C(N)=O)C4)cnn2c1 (centres unmarked) [Example 258, N-(6-((4-carbamoyl-3′,5′-bis(hydroxymethyl)-[1,1′-biphenyl]-3-yl)oxy)spiro[3.3]heptan-2-yl)-6-(2-hydroxy-2-methylpropoxy)pyrazolo[1,5-a]pyridine-3-carboxamide]
